The target of the assay is T1, FAAH (Rattus norvegicus, UniProt P97612).
T1 construct: Preparation of Rat Brain Membranes Preparations (FAAH Enzyme Solution); from tissue; host or cells: rat cerebrum (brain membrane preparation)
T1 sequence (P97612 1-579): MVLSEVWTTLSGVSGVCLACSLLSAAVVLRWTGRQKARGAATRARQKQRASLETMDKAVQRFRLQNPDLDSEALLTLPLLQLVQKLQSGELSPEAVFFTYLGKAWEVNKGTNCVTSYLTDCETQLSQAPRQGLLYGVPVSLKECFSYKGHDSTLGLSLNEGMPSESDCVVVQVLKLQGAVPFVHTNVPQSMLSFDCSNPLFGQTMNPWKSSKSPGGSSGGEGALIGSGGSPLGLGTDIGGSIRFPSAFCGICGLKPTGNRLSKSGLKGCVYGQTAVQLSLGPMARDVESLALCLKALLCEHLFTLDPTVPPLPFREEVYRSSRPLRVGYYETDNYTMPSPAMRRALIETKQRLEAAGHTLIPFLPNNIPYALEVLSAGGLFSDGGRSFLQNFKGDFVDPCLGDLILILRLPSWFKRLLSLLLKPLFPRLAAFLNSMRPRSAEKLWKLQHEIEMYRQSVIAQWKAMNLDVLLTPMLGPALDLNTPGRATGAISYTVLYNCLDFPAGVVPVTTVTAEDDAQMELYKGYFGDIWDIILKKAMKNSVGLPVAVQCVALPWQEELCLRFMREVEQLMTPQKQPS
The experiment in a line: Determination of FAAH inhibitory activity in rat (rat brain membrane preparations, [3H]-anandamide hydrolysis). To be noted: rat brain membrane preparations; for inhibition at 0.1 µM: 100 nM test substance, read-out: FAAH Inhibition, Inhibition Rate at 100 nM; for IC50: test substance 0.1 nM to 1 μM, read-out: FAAH Inhibition IC50. In kind it is biochemical. A digest of the protocol: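 Compounds tested from 0.1 nM to 1 μM to derive IC50 against FAAH hydrolysis in rat brain membrane preparations (100 μg/mL). A 10-min 37 °C preincubation was followed by 10 min with [3H]-anandamide (2 nM) mixed with 2 μM unlabelled anandamide. Radioactive ethanolamine was extracted into the water/methanol layer and counted.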

Each structure is given as a SMILES string. A value given as a limit tells only on which side of the number the result lay.

For orientation: inhibition means the change of the read-out against control, counted positive when it falls. Usually IC50 stands for the concentration that inhibits the measured activity by half. For the compound `COc1cccc(-c2ncc3c(n2)n(C)c(=O)n3C(=O)N2CCCC2)c1` [Example 173, 2-(3-Methoxyphenyl)-9-methyl-7-(pyrrolidin-1-ylcarbonyl)-7,9-dihydro-8H-purine-8-one], the inhibition at 0.1 µM was 101% and the IC50 is 7 nM.

With `CN(C)c1ccc(-c2ncc3c(n2)n(C)c(=O)n3C(=O)N2CCCC2)cc1` [Example 182, 2-[4-(Dimethylamino)phenyl]-9-methyl-7-(pyrrolidin-1-ylcarbonyl)-7,9-dihydro-8H-purine-8-one], the inhibition at 0.1 µM came to 100% and the IC50 amounted to 28 nM.

Consider `CSc1ccc(-c2ncc3c(n2)n(C)c(=O)n3C(=O)N2CCCC2)cc1` [Example 183, 9-Methyl-2-[4-(methylsulfanyl)phenyl]-7-(pyrrolidin-1-ylcarbonyl)-7,9-dihydro-8H-purine-8-one], for which the inhibition at 0.1 µM came out at 101% and the concentration for half-maximal inhibition (IC50) worked out at 3 nM.

`Cn1c(=O)n(C(=O)N2CCCC2)c2cnc(-c3cccc(F)c3F)nc21` [Example 187, 2-(2,3-Difluorophenyl)-9-methyl-7-(pyrrolidin-1-ylcarbonyl)-7,9-dihydro-8H-purine-8-one]: the inhibition at 0.1 µM worked out at 100% and the IC50 came to 7 nM.

Turning to `Cn1c(=O)n(C(=O)N2CCCC2)c2cnc(-c3cc(F)ccc3F)nc21` [Example 189, 2-(2,5-Difluorophenyl)-9-methyl-7-(pyrrolidin-1-ylcarbonyl)-7,9-dihydro-8H-purine-8-one], the inhibition at 0.1 µM is 100% and the half-inhibitory concentration (IC50) worked out at 7 nM.

As to `COc1cccc(-c2ncc3c(n2)n(C)c(=O)n3C(=O)N2CCCC2)c1F` [Example 196, 2-(2-Fluoro-3-methoxyphenyl)-9-methyl-7-(pyrrolidin-1-ylcarbonyl)-7,9-dihydro-8H-purine-8-one], the inhibition at 0.1 µM worked out at 101% and the half-maximal inhibitory concentration (IC50) turned out to be 23 nM.

As to `COc1ccc(F)c(-c2ncc3c(n2)n(C)c(=O)n3C(=O)N2CCCC2)c1` [Example 200, 2-(2-Fluoro-5-methoxyphenyl)-9-methyl-7-(pyrrolidin-1-ylcarbonyl)-7,9-dihydro-8H-purine-8-one], the inhibition at 0.1 µM came out at 97% and the IC50 is 30 nM.

For `Cc1cc(F)cc(-c2ncc3c(n2)n(C)c(=O)n3C(=O)N2CCCC2)c1` [Example 201, 2-(3-Fluoro-5-methylphenyl)-9-methyl-7-(pyrrolidin-1-ylcarbonyl)-7,9-dihydro-8H-purine-8-one], the inhibition at 0.1 µM came to 99% and the IC50 was 26 nM.

As for `Cn1c(=O)n(C(=O)N2CCCC2)c2cnc(-c3cccc(OCc4ccccc4)c3)nc21` [Example 202, 2-(3-benzyloxyphenyl)-9-methyl-7-(pyrrolidin-1-ylcarbonyl)-7,9-dihydro-8H-purine-8-one], the inhibition at 0.1 µM stood at 53% and the IC50 was 95 nM.

For `Cn1c(=O)n(C(=O)N2CCCC2)c2cnc(-c3cccc([N+](=O)[O-])c3)nc21` [Example 203, 2-(3-nitrophenyl)-9-methyl-7-(pyrrolidin-1-ylcarbonyl)-7,9-dihydro-8H-purine-8-one], the inhibition at 0.1 µM came out at 98% and the IC50 was 24 nM.

As to `Cn1c(=O)n(C(=O)N2CCCC2)c2cnc(-c3cccnc3)nc21` [Example 205, 9-Methyl-2-(pyridin-3-yl)-7-(pyrrolidin-1-ylcarbonyl)-7,9-dihydro-8H-purine-8-one], the inhibition at 0.1 µM was 98% and the concentration for half-maximal inhibition (IC50) came out at 5 nM.

For `COc1ccc(-c2ncc3c(n2)n(C)c(=O)n3C(=O)N2CCCC2)cn1` [Example 206, 2-(6-Methoxypyridin-3-yl)-9-methyl-7-(pyrrolidin-1-ylcarbonyl)-7,9-dihydro-8H-purine-8-one], the inhibition at 0.1 µM came out at 98% and the IC50 came out at 4 nM.

For the compound `Cn1c(=O)n(C(=O)N2CCCC2)c2cnc(-c3ccc(F)nc3)nc21` [Example 207, 2-(6-Fluoropyridine-3-yl)-9-methyl-7-(pyrrolidin-1-ylcarbonyl)-7,9-dihydro-8H-purine-8-one], the inhibition at 0.1 µM came out at 99% and the IC50 is 6 nM.

Take `Cn1c(=O)n(C(=O)N2CCCC2)c2cnc(-c3ccncc3)nc21` [Example 213, 9-Methyl-2-(pyridin-4-yl)-7-(pyrrolidin-1-ylcarbonyl)-7,9-dihydro-8H-purine-8-one]: the inhibition at 0.1 µM stood at 100% and the 50% inhibitory concentration (IC50) worked out at 5 nM.

Regarding `Cn1c(=O)n(C(=O)N2CCCC2)c2cnc(-c3ccnc(Cl)c3)nc21` [Example 214, 2-(2-Chloropyridin-4-yl)-9-methyl-7-(pyrrolidin-1-ylcarbonyl)-7,9-dihydro-8H-purine-8-one], the inhibition at 0.1 µM was determined as 99% and the IC50 was 18 nM.

Regarding `Cn1c(=O)n(C(=O)N2CCCC2)c2cnc(-c3ccnc(F)c3)nc21` [Example 215, 2-(2-Fluoropyridin-4-yl)-9-methyl-7-(pyrrolidin-1-ylcarbonyl)-7,9-dihydro-8H-purine-8-one], the inhibition at 0.1 µM stood at 98% and the 50% inhibitory concentration (IC50) is 10 nM.

Regarding `Cn1c(=O)n(C(=O)N2CCCC2)c2cnc(-c3cc4ccccc4o3)nc21` [Example 216], the inhibition at 0.1 µM stood at 99% and the IC50 is 7 nM.

Take `C/C=C/c1ncc2c(n1)n(C)c(=O)n2C(=O)N1CCCC1` [Example 217]: the inhibition at 0.1 µM was determined as 99% and the IC50 was 27 nM.

Regarding `Cn1c(=O)n(C(=O)N2CCCC2)c2cnc(C3=CCCCC3)nc21` [Example 218, 2-(cyclohexen-1-yl)-9-methyl-7-(pyrrolidin-1-ylcarbonyl)-7,9-dihydro-8H-purine-8-one], the inhibition at 0.1 µM worked out at 95% and the IC50 came to 25 nM.

On to `CCN(C)C(=O)n1c(=O)n(C)c2nc(-c3cccnc3)ncc21` [Example 219, N-Ethyl-N,9-dimethyl-8-oxo-2-(pyridin-3-yl)-8,9-dihydro-7H-purine-7-carboxamide], for which the inhibition at 0.1 µM came to 96% and the IC50 is 9 nM.

Take `CCN(C)C(=O)n1c(=O)n(C)c2nc(-c3ccncc3)ncc21` [Example 220, N-Ethyl-N,9-dimethyl-8-oxo-2-(pyridin-4-yl)-8,9-dihydro-7H-purine-7-carboxamide]: the inhibition at 0.1 µM turned out to be 105% and the concentration for half-maximal inhibition (IC50) came out at 7 nM.

With `CCN(C)C(=O)n1c(=O)n(C)c2nc(-c3ccnc(F)c3)ncc21` [Example 221, N-Ethyl-2-(2-fluoropyridin-4-yl)-N,9-dimethyl-8-oxo-8,9-dihydro-7H-purine-7-carboxamide], the inhibition at 0.1 µM came to 100% and the 50% inhibitory concentration (IC50) was determined as 4 nM.

Consider `CN(CCc1ccc(Cl)cc1)C(=O)n1c(=O)n(C)c2nc(-c3ccnc(F)c3)ncc21` [Example 222, N-[2-(4-Chlorophenyl)ethyl]-2-(2-fluoropyridin-4-yl)-N,9-dimethyl-8-oxo-8,9-dihydro-7H-purine-7-carboxamide], for which the inhibition at 0.1 µM is 99% and the IC50 was less than 1 nM.

Consider `CN(CCC1CCCCC1)C(=O)n1c(=O)n(C)c2nc(-c3ccncc3)ncc21` [Example 223, N-(2-Cyclohexylethyl)-N,9-dimethyl-8-oxo-2-(pyridin-4-yl)-8,9-dihydro-7H-purine-7-carboxamide], for which the inhibition at 0.1 µM was 105% and the concentration for half-maximal inhibition (IC50) was less than 1 nM.

With `Cn1c(=O)n(C(=O)N2CCCC2)c2nc(-c3ccccc3)ncc21` [Example 224, 7-Methyl-2-phenyl-9-(pyrrolidin-1-ylcarbonyl)-7,9-dihydro-8H-purine-8-one], the inhibition at 0.1 µM turned out to be 91% and the IC50 is 53 nM.

As to `Cn1c(=O)n(C(=O)N2CCCC2)c2nc(-c3cccc(F)c3)ncc21` [Example 226, 2-(3-Fluorophenyl)-7-methyl-9-(pyrrolidin-1-ylcarbonyl)-7,9-dihydro-8H-purine-8-one], the inhibition at 0.1 µM is 99% and the half-maximal inhibitory concentration (IC50) turned out to be 27 nM.

Consider `Cn1c(=O)n(C(=O)N2CCCC2)c2nc(-c3ccc(F)cc3)ncc21` [Example 227, 2-(4-Fluorophenyl)-7-methyl-9-(pyrrolidin-1-ylcarbonyl)-7,9-dihydro-8H-purine-8-one], for which the inhibition at 0.1 µM was determined as 97% and the IC50 was 34 nM.

For `Cc1cccc(-c2ncc3c(n2)n(C(=O)N2CCCC2)c(=O)n3C)c1` [Example 228, 7-Methyl-2-(3-methylphenyl)-9-(pyrrolidin-1-ylcarbonyl)-7,9-dihydro-8H-purine-8-one], the inhibition at 0.1 µM was 99% and the IC50 turned out to be 31 nM.

Take `Cc1ccc(-c2ncc3c(n2)n(C(=O)N2CCCC2)c(=O)n3C)cc1` [Example 229, 7-Methyl-2-(4-methylphenyl)-9-(pyrrolidin-1-ylcarbonyl)-7,9-dihydro-8H-purine-8-one]: the inhibition at 0.1 µM stood at 90% and the IC50 came to 53 nM.

Regarding `COc1cccc(-c2ncc3c(n2)n(C(=O)N2CCCC2)c(=O)n3C)c1` [Example 230, 2-(3-Methoxyphenyl)-7-methyl-9-(pyrrolidin-1-ylcarbonyl)-7,9-dihydro-8H-purine-8-one], the inhibition at 0.1 µM came to 94% and the 50% inhibitory concentration (IC50) was 44 nM.
